# Source: ChEMBL document CHEMBL1201862, “PubChem BioAssay data set” (2004)
#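 Assay format: 96-well plates, 48-hour exposure. GI50 is the concentration that inhibits growth by half.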 Calls of active or inactive are those of the source. No stated cut-off is given here; in the data, active = GI50 up to about 1.1 µM and inactive = higher.
# Assays:
# Assay in all cases: NCI tumour cell line growth inhibition, 48 h
# [1] = tested on: Malme-3M
# [2] = tested on: IGROV-1
# [3] = tested on: SNB-19
# [4] = tested on: SNB-75
# [5] = tested on: CAKI-1
# [6] = tested on: MCF7
# [7] = tested on: HOP-62
# [8] = tested on: UACC-62
# [9] = tested on: NCI-H23
# [10] = tested on: HCT-116
# [11] = tested on: NCI-H522
# [12] = tested on: CCRF-CEM
# [13] = tested on: PC-3
# [14] = tested on: SF-539
# [15] = tested on: EKVX
# [16] = tested on: HT-29
# [17] = tested on: HOP-92
# [18] = tested on: SR
# [19] = tested on: SK-OV-3
# [20] = tested on: OVCAR-4
# [21] = tested on: MDA-MB-435
# [22] = tested on: A498
# [23] = tested on: OVCAR-8
# [24] = tested on: SF-295
# [25] = tested on: UO-31
# [26] = tested on: HCC 2998
# [27] = tested on: TK-10
# [28] = tested on: UACC-257
# [29] = tested on: M14
# [30] = tested on: SN12C
# [31] = tested on: OVCAR-3
# [32] = tested on: U-251
# [33] = tested on: T47D
# [34] = tested on: MDA-MB-231
# [35] = tested on: KM12
# [36] = tested on: HL-60
# [37] = tested on: NCI-H226
# [38] = tested on: NCI-H460
# [39] = tested on: SK-MEL-5
# [40] = tested on: ACHN
# [41] = tested on: BT-549
# [42] = tested on: OVCAR-5
# [43] = tested on: DU-145
# [44] = tested on: MDA-N
# [45] = tested on: Hs-578T
# [46] = tested on: COLO 205
# [47] = tested on: SW-620
# [48] = tested on: RXF 393
# [49] = tested on: A549
# [50] = tested on: SK-MEL-28
# [51] = tested on: K562
# [52] = tested on: MOLT-4
# [53] = tested on: SF-268
# [54] = tested on: 786-0
# [55] = tested on: HCT-15
# [56] = tested on: RPMI-8226
# [57] = tested on: SK-MEL-2
# [58] = tested on: LOX IMVI
smiles,measurement,setting,value
C[C@]12CC[C@H](O)CC1=CC[C@@H]1C2CC[C@]2(C)c3n[nH]nc3CC12 (stereo not given in full),GI50,[1],> 100 µM (inactive)
same,GI50,[2],> 100 µM (inactive)
same,GI50,[3],> 100 µM (inactive)
same,GI50,[4],82 µM (inactive)
same,GI50,[5],> 100 µM (inactive)
same,GI50,[6],> 100 µM (inactive)
same,GI50,[7],> 100 µM (inactive)
same,GI50,[8],96.6 µM (inactive)
same,GI50,[9],> 100 µM (inactive)
same,GI50,[10],> 100 µM (inactive)
same,GI50,[11],> 100 µM (inactive)
same,GI50,[12],> 100 µM (inactive)
same,GI50,[13],> 100 µM (inactive)
same,GI50,[14],> 100 µM (inactive)
same,GI50,[15],52.7 µM (inactive)
same,GI50,[16],> 100 µM (inactive)
same,GI50,[17],> 100 µM (inactive)
same,GI50,[18],25.9 µM (inactive)
same,GI50,[19],> 100 µM (inactive)
same,GI50,[20],> 100 µM (inactive)
same,GI50,[21],36.2 µM (inactive)
same,GI50,[22],> 100 µM (inactive)
same,GI50,[23],> 100 µM (inactive)
same,GI50,[24],> 100 µM (inactive)
same,GI50,[25],> 100 µM (inactive)
same,GI50,[26],> 100 µM (inactive)
same,GI50,[27],> 100 µM (inactive)
same,GI50,[28],> 100 µM (inactive)
same,GI50,[29],> 100 µM (inactive)
same,GI50,[30],> 100 µM (inactive)
same,GI50,[31],> 100 µM (inactive)
same,GI50,[32],> 100 µM (inactive)
same,GI50,[33],> 100 µM (inactive)
same,GI50,[34],> 100 µM (inactive)
same,GI50,[35],> 100 µM (inactive)
same,GI50,[36],44.4 µM (inactive)
same,GI50,[37],> 100 µM (inactive)
same,GI50,[38],> 100 µM (inactive)
same,GI50,[39],> 100 µM (inactive)
same,GI50,[40],> 100 µM (inactive)
same,GI50,[41],> 100 µM (inactive)
same,GI50,[42],> 100 µM (inactive)
same,GI50,[43],> 100 µM (inactive)
same,GI50,[44],36.3 µM (inactive)
same,GI50,[45],38.6 µM (inactive)
same,GI50,[46],> 100 µM (inactive)
same,GI50,[47],> 100 µM (inactive)
same,GI50,[48],> 100 µM (inactive)
same,GI50,[49],> 100 µM (inactive)
same,GI50,[50],> 100 µM (inactive)
same,GI50,[51],39.8 µM (inactive)
same,GI50,[52],> 100 µM (inactive)
same,GI50,[53],> 100 µM (inactive)
same,GI50,[54],> 100 µM (inactive)
COc1ccc2c(c1)CC[C@@H]1C2CC[C@]2(C)C(=O)N(C)C(=O)CC12 (stereo not given in full),GI50,[1],> 100 µM (inactive)
same,GI50,[2],> 100 µM (inactive)
same,GI50,[3],> 100 µM (inactive)
same,GI50,[4],52.5 µM (inactive)
same,GI50,[5],> 100 µM (inactive)
same,GI50,[6],> 100 µM (inactive)
same,GI50,[7],38.9 µM (inactive)
same,GI50,[8],> 100 µM (inactive)
same,GI50,[9],> 100 µM (inactive)
same,GI50,[10],> 100 µM (inactive)
same,GI50,[11],> 100 µM (inactive)
same,GI50,[12],> 100 µM (inactive)
same,GI50,[13],> 100 µM (inactive)
same,GI50,[14],> 100 µM (inactive)
same,GI50,[15],> 100 µM (inactive)
same,GI50,[16],> 100 µM (inactive)
same,GI50,[17],> 100 µM (inactive)
same,GI50,[18],13.9 µM (inactive)
same,GI50,[19],> 100 µM (inactive)
same,GI50,[20],> 100 µM (inactive)
same,GI50,[21],> 100 µM (inactive)
same,GI50,[22],> 100 µM (inactive)
same,GI50,[23],> 100 µM (inactive)
same,GI50,[24],62.7 µM (inactive)
same,GI50,[25],> 100 µM (inactive)
same,GI50,[26],> 100 µM (inactive)
same,GI50,[27],> 100 µM (inactive)
same,GI50,[28],> 100 µM (inactive)
same,GI50,[29],> 100 µM (inactive)
same,GI50,[30],> 100 µM (inactive)
same,GI50,[31],> 100 µM (inactive)
same,GI50,[32],75.9 µM (inactive)
same,GI50,[33],> 100 µM (inactive)
same,GI50,[34],> 100 µM (inactive)
same,GI50,[35],> 100 µM (inactive)
same,GI50,[36],15.7 µM (inactive)
same,GI50,[37],> 100 µM (inactive)
same,GI50,[38],> 100 µM (inactive)
same,GI50,[39],> 100 µM (inactive)
same,GI50,[40],> 100 µM (inactive)
same,GI50,[41],> 100 µM (inactive)
same,GI50,[42],> 100 µM (inactive)
same,GI50,[43],> 100 µM (inactive)
same,GI50,[44],> 100 µM (inactive)
same,GI50,[45],42 µM (inactive)
same,GI50,[46],> 100 µM (inactive)
same,GI50,[47],> 100 µM (inactive)
same,GI50,[48],38.1 µM (inactive)
same,GI50,[49],> 100 µM (inactive)
same,GI50,[50],> 100 µM (inactive)
same,GI50,[51],> 100 µM (inactive)
same,GI50,[52],> 100 µM (inactive)
same,GI50,[53],> 100 µM (inactive)
same,GI50,[54],50.1 µM (inactive)
O=C(O)c1cccc(S(=O)(=O)NN2C(=O)CSC2c2ccc(Cl)cc2Cl)c1 (stereo not given),GI50,[1],82.4 µM (inactive)
same,GI50,[2],> 100 µM (inactive)
same,GI50,[3],49.5 µM (inactive)
same,GI50,[4],30.2 µM (inactive)
same,GI50,[5],> 100 µM (inactive)
same,GI50,[6],32.1 µM (inactive)
same,GI50,[7],44.9 µM (inactive)
same,GI50,[8],28.6 µM (inactive)
same,GI50,[9],40.2 µM (inactive)
same,GI50,[55],30.2 µM
same,GI50,[10],28.7 µM (inactive)
same,GI50,[11],24.7 µM (inactive)
same,GI50,[12],9.75 µM (inactive)
same,GI50,[13],94.2 µM (inactive)
same,GI50,[14],19.5 µM (inactive)
same,GI50,[15],68.5 µM (inactive)
same,GI50,[16],32.5 µM (inactive)
same,GI50,[17],> 100 µM (inactive)
same,GI50,[18],17.6 µM (inactive)
same,GI50,[19],> 100 µM (inactive)
same,GI50,[21],21.2 µM (inactive)
same,GI50,[22],> 100 µM (inactive)
same,GI50,[23],15.4 µM (inactive)
same,GI50,[24],51.6 µM (inactive)
same,GI50,[25],> 100 µM (inactive)
same,GI50,[26],> 100 µM (inactive)
same,GI50,[56],97.3 µM (inactive)
same,GI50,[27],> 100 µM (inactive)
same,GI50,[28],35.2 µM (inactive)
same,GI50,[29],34.5 µM (inactive)
same,GI50,[30],25.8 µM (inactive)
same,GI50,[31],36.1 µM (inactive)
same,GI50,[32],21.4 µM (inactive)
same,GI50,[57],32.3 µM (inactive)
same,GI50,[58],34.2 µM (inactive)
same,GI50,[33],> 100 µM (inactive)
same,GI50,[34],43.5 µM (inactive)
same,GI50,[35],41.7 µM (inactive)
same,GI50,[36],12 µM (inactive)
same,GI50,[37],35.4 µM (inactive)
same,GI50,[38],41.3 µM (inactive)
same,GI50,[39],> 100 µM (inactive)
same,GI50,[40],> 100 µM (inactive)
same,GI50,[41],29.1 µM (inactive)
same,GI50,[42],> 100 µM (inactive)
same,GI50,[43],> 100 µM (inactive)
same,GI50,[44],24.7 µM (inactive)
same,GI50,[45],19 µM (inactive)
same,GI50,[46],> 100 µM (inactive)
same,GI50,[47],34.2 µM (inactive)
same,GI50,[48],37.2 µM (inactive)
same,GI50,[49],> 100 µM (inactive)
same,GI50,[50],23.2 µM (inactive)
same,GI50,[51],24 µM (inactive)
same,GI50,[52],28.8 µM (inactive)
same,GI50,[53],36.2 µM (inactive)
same,GI50,[54],16 µM (inactive)
